{"source": "patent US20080015236A1", "about": "“METHOD FOR PROMOTING MYOCARDIAL REGENERATION AND USES THEREOF” (priority 2006, published 2008)", "system": "region of myocardium that includes a myocardial infarction", "test": "Occlusion of the left anterior descending artery (myocardial infarction) in rats, daily intraperitoneal GM284, survival and histological analysis", "type": "in vivo, Sprague Dawley rats", "text": "The left anterior descending artery (“LAD”) of 36 male adult Sprague Dawley rats weighing between 250 and 270 grams was occluded by placement of a ligature around the LAD and pulling it taught. The ligature was left in place to create a chronic ischemic area (myocardial infarction) distal to the occlusion. Following the closure of the chest and evacuation of the extra-pulmonary air to reverse the surgery-induced pneumothorax, the rats were returned to their cages for recovery, where they had ad libitum access to water and food for the duration of the experiment. Immediately following surgery the rats received the analgesic Buprenex at a dose of 1.5 mg/kg subcutaneously every 12 hours for the first 72 hours, and then on an as-needed basis.\nThe GM284 was dissolved to a final concentration of 5 mg/kg in phosphate buffered saline (“PBS”); 10 μM stock solution of GM284 in dimethyl sulfoxide (“DMSO”) was diluted in PBS. The vehicle was 250 μl of DMSO into 10 ml PBS.\nPostsurgically, the rats were randomly assigned into six (6) experimental groups (A through F) with 6 animals in each group (n=36). “Vehicle” groups A, C and E received daily intraperitoneal injections of vehicle; and, “treatment” groups B, D, and F were treated with intraperitoneal injections of GM284.\nAnimals in treatment groups B, D, and F received daily intraperitoneal injections of GM284 at 5 mg/kg; and, animals in vehicle groups A, C and E received daily intraperitoneal injections of only the vehicle in which the GM284 was dissolved.\nAnimals in vehicle group A and treatment group B were treated for 2 weeks after LAD ligation and sacrificed.\nAnimals in vehicle group C and treatment group D were treated for 2 weeks following LAD ligation. Thereafter, the vehicle or GM284 injections were withdrawn and the animals were allowed to survive for an additional 2 weeks prior to sacrifice.\nAnimals in vehicle group E treatment group F were treated daily for 30 days following LAD ligation and then sacrificed.\nPrior to sacrifice, the animals were anesthetized the hearts were harvested and processed for histological analysis by submersion-fixing in 4% paraformaldehyde at 4° C. overnight, followed by dehydration and embedding in paraffin. Eight-micra tissue sections were cut through the infarcted area and stained with H&E and trichrome. The histological sections were viewed by light microscopy, by a reviewer blind to the treatment groups, and evaluated for: • 1) the size of the infarct; • 2) the presence of viable cardiac myocytes; and, • 3) the extent of collateral vascularity.", "key": {"[1]": {"settings": "two weeks after LAD occlusion, daily GM284 5 mg/kg i.p., versus vehicle, FIG. 2b"}}, "note": "Entries after “also recorded” stand apart in the source; their conditions may differ.", "data": [{"smiles": "CCC(C)(C)C(=O)C(=O)N1CCC[C@H]1c1nnc([C@@H]2CCCN2C(=O)C(=O)C(C)(C)CC)o1", "note": "[GM284]", "values": [{"measurement": "scarring / fibrosis (trichrome stain)", "setting": "four weeks after LAD occlusion, daily treatment (group F), vehicle: extensive area of infarction, FIG. 3a", "value": "virtually no scarring; also recorded: minimal fibrosis"}, {"measurement": "cardiac histology (H&E stain)", "setting": "four weeks after LAD occlusion, daily treatment (group F), vehicle: extensive fibrosis, FIG. 3c", "value": "normal cardiac histology"}, {"measurement": "histological appearance of the cardiac tissue after withdrawal of treatment", "setting": "treated two weeks, survived additional two weeks without treatment (group D), compared with animals analyzed at cessation of treatment", "value": "did not significantly alter the histological appearance"}, {"measurement": "survival over the length of the study", "setting": "treatment groups B, D, F, 5 mg/kg daily intraperitoneal after LAD ligation, vehicle group mortality 25%", "value": 100, "unit": "%"}, {"measurement": "intramural vascularity (histology)", "setting": "[1]", "value": "increase in the intramural vascularity"}, {"measurement": "viable myocardial cells (histology)", "setting": "[1]", "value": "increase in viable myocardial cells"}, {"measurement": "extent of collateral vascularity (histology)", "setting": "two weeks after LAD occlusion, daily GM284 5 mg/kg i.p., rare in vehicle treated tissue, FIG. 2b", "value": "numerous collateral vessels"}]}]}
